Assay results as given in PMC6149869 (OncoTargets and therapy, 2018).

Columns and labels:
MDR-1 = assay: qPCR expression of PXR downstream gene MDR-1 in MHCC97-H cells; details: human
MHCC97-H cells [1] = assay: Intrahepatic HCC tumor growth model; assay type: in vivo, nude mice; details: sorafenib 2 mg/kg oral; Figure 4
[2] = Clearance of sorafenib in cultured MHCC97-H cells; assay type: in vitro ADME; details: human, Half-life (t1/2 value) of Sor, 1 µmol/L sorafenib
MHCC97-H cells [3] = assay: Subcutaneous HCC tumor growth model; assay type: in vivo, nude mice; details: sorafenib 2 mg/kg oral; Figure 3

## CO[C@H]1/C=C/O[C@@]2(C)Oc3c(C)c(O)c4c(O)c(c(/C=N/N5CCN(C)CC5)c(O)c4c3C2=O)NC(=O)/C(C)=C\C=C\[C@H](C)[C@H](O)[C@@H](C)[C@@H](O)[C@@H](C)[C@H](OC(C)=O)[C@@H]1C [rifampicin, Rifampicin]
MDR-1
  EC50 at 24 h: 1.81 ± 0.29 µM

## CNC(=O)c1cc(Oc2ccc(NC(=O)Nc3ccc(Cl)c(C(F)(F)F)c3)cc2)ccn1 [Sor, sorafenib]
MHCC97-H cells [1]
  Effect on intrahepatic growth of MHCC97-H cells in livers of nude mice: significantly inhibit the intrahepatic growth of MHCC97-H cells
[2]; miR-140-3p
  half-life at 1 µmol/L: 21.6 ± 5.3 h
[2]; miR-140-3p + inhibitor
  half-life at 1 µmol/L: 14.7 ± 5.87 h
MHCC97-H cells [3]
  Effect on subcutaneous growth of HCC cells in nude mice: significantly inhibit the subcutaneous growth of HCC cells
